Results published in US9156862B2, “Silylated azulenyl nitrone spin traps as chromotropic superoxide detectors” (THE FLORDIA INTERNATIONAL UNIVERSITY BOARD OF TRUSTEES, priority 2011, dated 2015).
One block for each compound: values may come before it.

How the values were obtained:
[1] = format: physicochemical
Experimental: Solutol HS 15 is a non-ionic solubilizer and emulsifying agent produced from 1 mole of 12-hydroxystearic acids and 15 moles of ethylene oxide. […] To prepare the concentration of 0.64 mg/ml of nitrone 25 in 3:7 solutol HS 15:1% saline solution, 1 ml of solutol HS 15 was heated until it turned into a clear liquid and cooled to room temperature. Meanwhile, 2.1 mg of nitrone 25 was crushed to a fine powder and dissolved in 1 ml of clear solutol HS 15. It was then diluted with 2.3 ml of 1% saline solution in water with frequent shaking and warming. It was then cool to room temperature to obtained green solution. The green solution was kept in a freezer, and found to be stable. The aqueous formulation of nitrone 25 with solutol HS 15 is believed to be amenable for mitochondrial superoxide detection and other biological studies.

[2] = Superoxide trapping: reaction of nitrone with potassium superoxide and crown ether in benzene; conditions: for trapping of superoxide radical anion: in vitro, yielding UV-VIS identifiable orange products; for colour change / coloured product upon reaction with potassium superoxide: potassium superoxide (3 or 6 equiv.)
Description: Thus, the amounts of potassium superoxide and crown ether were increased to 5 equivalents. Still no product was observed. The result could be due to the fact that not enough superoxide radical anion was present because of poor solubility of potassium superoxide. Therefore, 20 equivalents of potassium superoxide and crown ether were directly treated with nitrone 22. These conditions gave a product in very low yield which was impossible to identify. Finally, nitrone 22 was directly treated using 6 equivalents of potassium superoxide. […] The product was identified as aldehyde 67 by observing the aldehyde-proton signal and the up-field shifting of the ethyl signal of the azulene ring.
The detection of superoxide with azulenysilane mononitrone 23 was based on the previous method as described (vida supra). Six equivalents of potassium superoxide were used as before. As mentioned earlier, the previous reaction was monitored by observing an orange product on TLC. […] Based on the previous mechanism, it was expected to obtain the end product bis-aldehyde 72. However, ^1H NMR spectral information of the orange end product indicated the loss of the silyl group, and presence of only the mono-aldehyde. The low resolution mass spectrum detected a MH^+ of 448. Unfortunately, it was not possible to purify enough for the NMR characterization. […] It is believed that the superoxide spin adduct that formed was unstable and fragmented into another compound rather than the expected one. The loss of the silyl group could result after rearrangement via a nucleophilic attack on silicon by a second superoxide anion since an excess of superoxide anion was used and due to the high affinity of silicon towards oxygen.
The unidentified end product from superoxide radical anion with nitrone 23 led us to synthesize an analogue, the isoxazoline azulenylsilanenitrone 24, and test it for its possible utility in superoxide detection. Using the same method as described earlier, superoxide was solubilized in benzene by employing in acrown ether. The only difference in this case was the use of three equivalents of potassium superoxide instead of six equivalents. […] As in the previous case, aldehyde product 73 was expected to be formed. […] With HRMS and NMR spectral analyses, the orange product was identified as amide 74.
Guanylhydrazone nitrone 25 is a congener of nitrone 24. Incorporation of guanylhydrazone moiety may make it mitochondriotropic, and thereby render it useful to detect superoxide anion present in the mitochondria. […] The brownish orange end product was isolated and identified as amide 80 using low resolution mass spectrum (MH^+=654) which is analogous to the end product 74. In addition to amide 80, a trace of another orange product was also observed which is identified as amide 81 (MH^+=768) analogous to amide 79.
6 mg of nitrone 22 (0.0163 mmol) was mixed with 6.9 mg of potassium superoxide (0.097 mmol, 6 equiv.) and 8.6 mg of crown ether (0.032 mmol, 2 equiv.) and dissolved the mixture in 1 ml of benzene. The reaction was stirred for 3 hr at room temperature. The product was washed with 10 ml of saturated sodium chloride several times, dried over magnesium sulfate and concentrated. The mixture was purified by column chromatography using 5:5 hexane:ethylacetate to give 2.2 mg of crude 67 (43%). It was not possible to obtain 67 pure enough for definitive NMR characterization. […] When the same reaction was stirred for three days, another orange product was observed. […] Impossible to isolate this product in pure form, the structure was not identified.
20 mg of nitrone 24 was treated with 7.5 mg of potassium superoxide and 18.6 mg of crown ether in 1 ml of benzene. The reaction was stirred for 16 hr at room temperature. The mixture was then washed with 10 ml of saturated sodium chloride several times, dried and concentrated. […]

[3] = Fluorescence and quantum yield of superoxide trapping product in ethanol; format: physicochemical; conditions: excitation wavelength 390 nm
Experimental: The UV-vis (ultra visible) absorption spectrum and fluorescence of chromotropic amide 74 was measured in ethanol. […] The fluorescence signal, indicated by red signal, was obtained by irradiating at the excitation wavelength 390 nm as shown in the spectrum. The wavelength dependence of the intensity of emitted light has been recorded at ˜490 nm (emission). The quantum yield of amide was measured at 2.7%. […] This, in addition to its chromotropic behavior, may bring an advantage over conventional cyclic nitrones which require ESR for superoxide detection.
All of the moisture sensitive reactions have been carried out using syringe septum rubber cap technique under N2 or Ar atmosphere or in a vial by flushing N2 or Ar gas into it. […] All of the reactions were monitored by TLC analysis (Whatman pre-coated silica gel F254 plates, 250 μm layer thickness), and visualization was achieved by 254 nm UV light. The crude reaction mixtures have been purified by column chromatography using 60 A (200-300 mess) on silica gel. ^1H and ^13C NMR spectra were recorded on Bruker AVANCE-400 spectrometer in CDCl3. Chemical shifts were measured in parts per million with residual solvent peak used as an internal standard. ^1H NMR spectra were run at 400 MHz and ^13C NMR spectra were recorder at […] with proton decoupled sequence. […] UV-vis spectrum was recorded using a Varian Cary 50 Bio spectrophotometer. […]

[4] = in cyclohexane; cited from earlier work
[5] = crown ether, benzene, room temperature

SMILES: [H]/N=C(\N)N/N=C/c1cccc(C#Cc2cccc(C3=C(C#N)C(c4c5cccccc-5c(/C=[N+](\[O-])C(C)(C)C)c4[Si](C)(C)C(C)(C)C)N(C(C)(C)C)O3)c2)c1 (stereo not shown) [nitrone 25, 2-tert-butyl-3-[2-(tert-butyldimethyl-silanyl)-3-nitrone-azulen-1-yl]-5-[3-(3-guanylhydrazone-phenylethynyl)-phenyl]-2,3-dihydro-isoxazole-4-carbonitrile]
concentration in solution [1]: 640 µg/mL | effect of solutol HS 15 on solubility in water [1]: increase the solubility | stability of solution [1]: stable | water solubility [1]: poorly water soluble | trapping of superoxide radical anion [2]: trap superoxide efficiently | trapping of superoxide radical anion ([2]; listed as 25): trap superoxide radical anion efficiently

SMILES: CCc1c2cccccc-2c(/C=[N+](\[O-])C(C)(C)C)c1[Si](C)(C)C(C)(C)C [nitrone 22, 2-terbutyldimethylsilyl-1ethyl-3-azulenylnitrone]
trapping of superoxide radical anion [2]: trap superoxide radical anion efficiently | reaction with superoxide ([2]; one to five equivalents of potassium superoxide and one equivalent of crown ether in benzene, room temperature): No reaction was observed | colour change / coloured product upon reaction with potassium superoxide [2, 5]: less polar orange product

fluorescence emission wavelength [3]: ~490 nm | fluorescence quantum yield [3]: 2.7%
SMILES: CC(C)(C)NC(=O)c1c2cccccc-2c2c(NC(C)(C)C)c(C(=O)c3ccccc3)c(=N)oc12 [amide 74]

SMILES: CC(C)(C)N1OC(c2ccccc2)=C(C#N)C1c1c2cccccc-2c(/C=[N+](\[O-])C(C)(C)C)c1[Si](C)(C)C(C)(C)C (stereo not shown) [nitrone 24, 2-tert-butyl-3-[2-(tert-butyldimethyl-silanyl)-3-nitrone-azulen-1-yl]-5-phenyl-2,3-dihydro-isoxazole-4-carbonitrile]
trapping of superoxide radical anion [2]: trap superoxide radical anion efficiently | colour change / coloured product upon reaction with potassium superoxide [2, 5]: completely turned into orange solution

SMILES: CC(C)(C)/[N+]([O-])=C/c1c2cccccc-2c(C=O)c1[Si](C)(C)C(C)(C)C [nitrone 23, 2-tert-butyldimethylsilyl-3-formyl-azulene-1-nitrone]
trapping of superoxide radical anion [2]: trap superoxide radical anion efficiently | colour change / coloured product upon reaction with potassium superoxide [2, 5]: turned completely from green to orange | time for reaction mixture to turn completely from green to orange ([2]; six equivalents of potassium superoxide, crown ether, benzene): 90 min

SMILES: Cc1c2cccccc-2c(C)c1[Si](C)(C)C(C)(C)C [nitrone 40, 2-tert-butyldimethylsilyl-1,3-dimethylazulene]
colour change / coloured product upon reaction with potassium superoxide [2, 5]: turned into brownish orange

SMILES: CCc1c2cccccc-2c(C=O)c1O[Si](C)(C)C(C)(C)C [aldehyde 67]
stability of aldehyde end product ([2]; under the superoxide reaction conditions, decomposed as reaction proceeded): very unstable

SMILES: C(#Cc1c2ccccc2c(C#Cc2ccccc2)c2ccccc12)c1ccccc1 [9,10-bis(phenylethynyl)anthracene]
quantum yield (QY) of fluorescence standard [4]: 1.0
